How the values were obtained:
SK-MEL-2 cell = assay: Cytotoxicity test (SRB method) for SK-MEL-2 cells; format: cell-based, human; conditions: SK-MEL-2, SRB, 48 hours incubation
Excerpt: (§1) Human lung carcinomas A549 and […] were used for determining cytotoxicity of the compounds of the present invention according to the Sulfrhodamine-B (SRB) method which was developed by NCI in 1989 in order to determine in vitro anticancer activity of drugs.
(§2) Cells to be used in the experiment were separated from a surface using 0.5% Trypsin-EDTA solution and suspended in a density of 5×10^4 cell/ml therein. The cell suspension was introduced into a 96-well plate in an amount of 180/well and incubated for 24 hours in a 5% CO2 incubator of 37° C. Samples were dissolved in dimethylsulfoxide and then diluted by water distilled in advance for three times just before the experiment. Forty-one (41) samples were prepared into 4 types of final concentrations, i.e., 0.1, 0.03, 0.01 and 0.003 mg per ml of the medium. The diluted sample solutions were added to the 96-well plate in the amount of 20 μl/well and incubated for 48 hours in a CO2 incubator of 37° C. At the time of adding the samples, Tz (Time zero) plate was taken. The medium was removed from the Tz plate and each of the plates after incubation were completed. Ten (10)% […] (TCA) was added in the amount of […], and allowed to stand for 1 hour at 4° C. to fix the cells on the bottom surface of the plate. After the cells were fixed, the plate was washed five to six times with water to completely remove the remaining TCA solution and then dried at room temperature to completely remove the moisture. To the fully dried plate was introduced a dye solution in the amount of […] in which 0.4% SRB was dissolved in 1% acetic acid solution. […] After the dyeing process, the plate was dried again at room temperature. 100 ml of 10 mM Tris solution was added thereto in order to dissolve the dye, and then O.D. (optical density) was determined by microplate reader at 520 nm.
(§3) ED50 values for cancer cells were calculated as follows. The amount of SRB protein was analyzed at the time when incubation started by the addition of the sample. This amount was named time zero (Tz). The O.D. value obtained from a group which was not treated by the sample was named Control group (C) and the O.D. value obtained from a group which was treated by the sample was named Test group (T).
(§4) The degree of cytotoxicity of the compounds was calculated from Tz, C and T values according to the following equation.
(§5) That is, in the case of Tz≧T, the degree was calculated by
(§6) (T−Tz)/(C−Tz)×100(%), and
(§7) • in the case of Tz<T, the degree was calculated by […].
(§8) From the values thus obtained, ED50 value which is defined as the concentration at which growth of the cancer cell is inhibited by 50% was calculated using the regression function of Excel program.

A549 cell = assay: Cytotoxicity test (SRB method) for A549 cells; format: cell-based, human; conditions: A549, SRB, 48 hours incubation, Table 2
Excerpt: as §1, §2, §3, §4, §5, §6, §7, §8

For CCCCCC/C=C\CCCCCCCCCC(=O)Oc1c(OC)cc(C2c3cc4c(cc3CC3COC(=O)C32)OCO4)cc1OC (stereo not drawn) [Compound 1c-18, 4′-demethyl-4′-O-(cis-11′-octadecenoyl)-1-deoxypodophyllo-toxin], the “ED50(mg/mL) for SK-MEL-2” value (SK-MEL-2 cell) was 0.057 mg/mL and the “ED50(mg/mL) for A549” value (A549 cell) was 0.335 mg/mL.

In the case of CCCCCC/C=C/CCCCCCCCCC(=O)Oc1c(OC)cc(C2c3cc4c(cc3CC3COC(=O)C32)OCO4)cc1OC (stereo not drawn) [Compound 1c-19, 4′-demethyl-4′-O-(trans-11′-octadecenoyl)-1-deoxypodophyllo-toxin], the “ED50(mg/mL) for SK-MEL-2” value (SK-MEL-2 cell) is reported as 0.253 mg/mL and the “ED50(mg/mL) for A549” value (A549 cell) is reported as 1.010 mg/mL.

With COc1cc(C2c3cc4c(cc3CC3COC(=O)C32)OCO4)cc(OC)c1OC(=O)CCCCCCCCCCC(=O)O (centres unmarked) [Compound 1c-36, 4′-demethyl-4′-O-(11′-carboxy-undecanoyl)-1-deoxypodophyllotoxin] the “ED50(mg/mL) for SK-MEL-2” value (SK-MEL-2 cell) was 0.068 mg/mL and the “ED50(mg/mL) for A549” value (A549 cell) was 0.046 mg/mL.

For CCCCCCCCCCCCCC(=O)Oc1c(OC)cc(C2c3cc4c(cc3CC3COC(=O)C32)OCO4)cc1OC (centres unmarked) [Compound 1c-12, 4′-demethyl-4′-O-tetradecanoyl-1-deoxypodophyllotoxin], the “ED50(mg/mL) for SK-MEL-2” value (SK-MEL-2 cell) was 0.050 mg/mL and the “ED50(mg/mL) for A549” value (A549 cell) was 0.041 mg/mL.

COc1cc(C2c3cc4c(cc3CC3COC(=O)C32)OCO4)cc(OC)c1OC(=O)CCCCCCCCCCCCC(=O)O (centres unmarked) [Compound 1c-37, 4′-demethyl-4′-O-(13′-carboxy-tridecanoyl)-1-deoxypodophyllotoxin] was tested, and the “ED50(mg/mL) for SK-MEL-2” value (SK-MEL-2 cell) was 0.070 mg/mL and the “ED50(mg/mL) for A549” value (A549 cell) was 0.019 mg/mL.

With CC/C=C\C/C=C\C/C=C\C/C=C\C/C=C\C/C=C\CCC(=O)Oc1c(OC)cc(C2c3cc4c(cc3CC3COC(=O)C32)OCO4)cc1OC (stereo not drawn) [Compound 1c-31, 4′-demethyl-4′-O-(cis-4′,7′,10′,13′,16′,19′-docohexaenoyl)-1-deoxypodophyllotoxin] the “ED50(mg/mL) for SK-MEL-2” value (SK-MEL-2 cell) was 0.035 mg/mL and the “ED50(mg/mL) for A549” value (A549 cell) was 0.119 mg/mL.

In the case of COc1cc(C2c3cc4c(cc3CC3COC(=O)C32)OCO4)cc(OC)c1OC(=O)/C=C(C)/C=C/C=C(C)/C=C/C1=C(C)CCCC1(C)C (centres unmarked) [Compound 1c-32, 4′-demethyl-4′-O-retinoyl-1-deoxypodophyllotoxin], the “ED50(mg/mL) for SK-MEL-2” value (SK-MEL-2 cell) is reported as 0.387 mg/mL and the “ED50(mg/mL) for A549” value (A549 cell) is reported as 2.130 mg/mL.

With CCCCCCCCCCCCCCCCCCCCCC(=O)Oc1c(OC)cc(C2c3cc4c(cc3CC3COC(=O)C32)OCO4)cc1OC (centres unmarked) [Compound 1c-29, 4′-demethyl-4′-O-docosanoyl-1-deoxypodophyllotoxin] the “ED50(mg/mL) for SK-MEL-2” value (SK-MEL-2 cell) was >5 mg/mL and the “ED50(mg/mL) for A549” value (A549 cell) was >5 mg/mL.

In the case of CCCCCC/C=C\CCCCCCCC(=O)Oc1c(OC)cc(C2c3cc4c(cc3CC3COC(=O)C32)OCO4)cc1OC (stereo not drawn) [Compound 1c-14, 4′-demethyl-4′-O-(cis-9′-hexadecenoyl)-1-deoxypodophyllo-toxin], the “ED50(mg/mL) for SK-MEL-2” value (SK-MEL-2 cell) is reported as 0.065 mg/mL and the “ED50(mg/mL) for A549” value (A549 cell) is reported as 0.733 mg/mL.

With CCCCCCCCCCCCCCCCCC(=O)Oc1c(OC)cc(C2c3cc4c(cc3CC3COC(=O)C32)OCO4)cc1OC (centres unmarked) [Compound 1c-15, 4′-demethyl-4′-O-octadecanoyl-1-deoxypodophyllotoxin] the “ED50(mg/mL) for SK-MEL-2” value (SK-MEL-2 cell) was >5 mg/mL and the “ED50(mg/mL) for A549” value (A549 cell) was 2.670 mg/mL.

For COc1cc(C2c3cc4c(cc3CC3COC(=O)C32)OCO4)cc(OC)c1OC(=O)CCCCCCCCC(=O)O (centres unmarked) [Compound 1c-35, 4′-demethyl-4′-O-(9′-carboxy-nonanoyl)-1-deoxypodophyllotoxin], the “ED50(mg/mL) for SK-MEL-2” value (SK-MEL-2 cell) was 0.015 mg/mL and the “ED50(mg/mL) for A549” value (A549 cell) was 0.014 mg/mL.

CCCCC/C=C\C/C=C\CCCCCCCC(=O)Oc1c(OC)cc(C2c3cc4c(cc3CC3COC(=O)C32)OCO4)cc1OC (stereo not drawn) [Compound 1c-20, 4′-demethyl-4′-O-(cis-9′,12′-octadecadienoyl)-1-deoxypodophyllo-toxin] was tested, and the “ED50(mg/mL) for SK-MEL-2” value (SK-MEL-2 cell) was 0.030 mg/mL and the “ED50(mg/mL) for A549” value (A549 cell) was 0.090 mg/mL.

For COc1cc(C2c3cc4c(cc3CC3COC(=O)C32)OCO4)cc(OC)c1OC(=O)c1ccccc1 (centres unmarked) [Compound 1c-10, 4′-demethyl-4′-O-benzoyl-1-deoxypodophyllotoxin], the “ED50(mg/mL) for SK-MEL-2” value (SK-MEL-2 cell) was 0.066 mg/mL and the “ED50(mg/mL) for A549” value (A549 cell) was 0.095 mg/mL.

Source: US6894075B2, “4′-demethyl-4′-O-substituted-1-deoxypodophyllotoxin derivative and geometric isomer thereof, process for the preparation thereof and anti-cancer composition comprising the same” (priority 2000, dated 2005)
